{
  "source": "patent US20050142169A1",
  "about": "“Palatability enhanced composition and method for animal consumption” (priority 2003, published 2005)",
  "key": {"[1]": {"test_system": "dogs", "test": "two-bowl preference test, Example 4 (Canine w/d, 2.4% test flavor)", "format": "in vivo, dog", "details": "dry wt. of kibble, test flavor 2.4%", "experimental": "The experiment comprised mixing various amounts of 2,5-dimethyl-4-hydroxy-3(2H)-furanone with a commercial liquid palatant enhancer as a carrier to form a test flavor. Each of the test flavors (2.4%, dry weight basis) was topically applied to a dry, commercial dog food (Canine w/d from Hill's Pet Nutrition, Inc.) after application of a commercial dry palatant enhancer in choice white grease (0.6%, dry weight basis) to form a test composition. […] The control compositions were prepared by topically applying the commercial liquid palatant enhancer (2.4% dry weight basis) to the dry, commercial dog food (Canine w/d) after application of a commercial dry palatant enhancer in choice white grease (0.6%, dry weight basis). Palatability was determined by comparing the test composition and the control composition in a standard two-bowl preference test over two days with 20 dogs as described in Example 1."}, "[2]": {"test_system": "cats", "test": "two-bowl preference test, Example 5 (Feline w/d)", "format": "in vivo, cat", "details": "dry wt. of kibble", "excerpt": "Finally, a commercial dry palatant enhancer (1.4% dry weight basis) was topically applied to the dry kibbles to complete the test composition."}, "[3]": {"details": "Exp. No. 6, second set of experiments, 87.1 ppm"}, "[4]": {"details": "Exp. No. 7, second set of experiments, 130.5 ppm"}, "[5]": {"details": "Exp. No. 8, second set of experiments, 174.0 ppm"}, "[6]": {"details": "Exp. No. 9, second set of experiments, 217.5 ppm"}, "[7]": {"details": "Exp. No. 10, second set of experiments, 282.8 ppm"}, "[8]": {"details": "Exp. No. 7, second set of experiments, 5.0 ppm"}, "[9]": {"details": "Exp. No. 8, second set of experiments, 10.0 ppm"}, "[10]": {"details": "Exp. No. 9, second set of experiments, 20.0 ppm"}, "[11]": {"details": "Exp. No. 10, second set of experiments, 30.0 ppm"}, "[12]": {"details": "Exp. No. 11, second set of experiments, 40.0 ppm"}, "[13]": {"details": "Exp. No. 12, second set of experiments, 50.0 ppm"}},
  "data": [
    {"compound": "CC1=C(O)C(=O)C(C)O1", "note": "(stereo not shown) [2,5-dimethyl-4-hydroxy-3(2H)-furanone]", "values": [
      {"measurement": "Intake Ratio", "setting": "[1]; Exp. No. 1, 87.1 ppm", "value": 0.6939},
      {"measurement": "Preference (%) control composition", "setting": "[1]; Exp. No. 1, 87.1 ppm", "value": 16.0, "unit": "%"},
      {"measurement": "Preference (%) test composition", "setting": "[1]; Exp. No. 1, 87.1 ppm", "value": 76.0, "unit": "%"},
      {"measurement": "Status (vs. control)", "setting": "[1]; Exp. No. 1, 87.1 ppm", "value": "Win"},
      {"measurement": "Intake Ratio", "setting": "[1]; Exp. No. 2, 130.5 ppm", "value": 0.6616},
      {"measurement": "Preference (%) control composition", "setting": "[1]; Exp. No. 2, 130.5 ppm", "value": 28.0, "unit": "%"},
      {"measurement": "Preference (%) test composition", "setting": "[1]; Exp. No. 2, 130.5 ppm", "value": 72.0, "unit": "%"},
      {"measurement": "Status (vs. control)", "setting": "[1]; Exp. No. 2, 130.5 ppm", "value": "Win"},
      {"measurement": "Intake Ratio", "setting": "[1]; Exp. No. 3, 174.0 ppm", "value": 0.6947},
      {"measurement": "Preference (%) control composition", "setting": "[1]; Exp. No. 3, 174.0 ppm", "value": 24.0, "unit": "%"},
      {"measurement": "Preference (%) test composition", "setting": "[1]; Exp. No. 3, 174.0 ppm", "value": 76.0, "unit": "%"},
      {"measurement": "Status (vs. control)", "setting": "[1]; Exp. No. 3, 174.0 ppm", "value": "Win"},
      {"measurement": "Intake Ratio", "setting": "[1]; Exp. No. 4, 217.5 ppm", "value": 0.7773},
      {"measurement": "Preference (%) control composition", "setting": "[1]; Exp. No. 4, 217.5 ppm", "value": 8.0, "unit": "%"},
      {"measurement": "Preference (%) test composition", "setting": "[1]; Exp. No. 4, 217.5 ppm", "value": 92.0, "unit": "%"},
      {"measurement": "Status (vs. control)", "setting": "[1]; Exp. No. 4, 217.5 ppm", "value": "Win"},
      {"measurement": "Intake Ratio", "setting": "[1]; Exp. No. 5, 282.8 ppm", "value": 0.8079},
      {"measurement": "Preference (%) control composition", "setting": "[1]; Exp. No. 5, 282.8 ppm", "value": 8.3, "unit": "%"},
      {"measurement": "Preference (%) test composition", "setting": "[1]; Exp. No. 5, 282.8 ppm", "value": 87.5, "unit": "%"},
      {"measurement": "Status (vs. control)", "setting": "[1]; Exp. No. 5, 282.8 ppm", "value": "Win"},
      {"measurement": "Intake Ratio", "setting": "[1]; [3]", "value": 0.6058},
      {"measurement": "Preference (%) control composition", "setting": "[1]; [3]", "value": 40.0, "unit": "%"},
      {"measurement": "Preference (%) test composition", "setting": "[1]; [3]", "value": 60.0, "unit": "%"},
      {"measurement": "Status (vs. control)", "setting": "[1]; [3]", "value": "Win"},
      {"measurement": "Intake Ratio", "setting": "[1]; [4]", "value": 0.6857},
      {"measurement": "Preference (%) control composition", "setting": "[1]; [4]", "value": 24.0, "unit": "%"},
      {"measurement": "Preference (%) test composition", "setting": "[1]; [4]", "value": 76.0, "unit": "%"},
      {"measurement": "Status (vs. control)", "setting": "[1]; [4]", "value": "Win"},
      {"measurement": "Intake Ratio", "setting": "[1]; [5]", "value": 0.5568},
      {"measurement": "Preference (%) control composition", "setting": "[1]; [5]", "value": 40.0, "unit": "%"},
      {"measurement": "Preference (%) test composition", "setting": "[1]; [5]", "value": 56.0, "unit": "%"},
      {"measurement": "Status (vs. control)", "setting": "[1]; [5]", "value": "Parity"},
      {"measurement": "Intake Ratio", "setting": "[1]; [6]", "value": 0.5453},
      {"measurement": "Preference (%) control composition", "setting": "[1]; [6]", "value": 40.0, "unit": "%"},
      {"measurement": "Preference (%) test composition", "setting": "[1]; [6]", "value": 60.0, "unit": "%"},
      {"measurement": "Status (vs. control)", "setting": "[1]; [6]", "value": "Parity"},
      {"measurement": "Intake Ratio", "setting": "[1]; [7]", "value": 0.7429},
      {"measurement": "Preference (%) control composition", "setting": "[1]; [7]", "value": 16.0, "unit": "%"},
      {"measurement": "Preference (%) test composition", "setting": "[1]; [7]", "value": 84.0, "unit": "%"},
      {"measurement": "Status (vs. control)", "setting": "[1]; [7]", "value": "Win"},
      {"measurement": "Intake Ratio", "setting": "[2]; Exp. No. 1, 5.0 ppm", "value": 0.7676},
      {"measurement": "Preference (%) control composition", "setting": "[2]; Exp. No. 1, 5.0 ppm", "value": 8.0, "unit": "%"},
      {"measurement": "Preference (%) test composition", "setting": "[2]; Exp. No. 1, 5.0 ppm", "value": 92.0, "unit": "%"},
      {"measurement": "Status (vs. control)", "setting": "[2]; Exp. No. 1, 5.0 ppm", "value": "Win"},
      {"measurement": "Intake Ratio", "setting": "[2]; Exp. No. 2, 10.0 ppm", "value": 0.8135},
      {"measurement": "Preference (%) control composition", "setting": "[2]; Exp. No. 2, 10.0 ppm", "value": 8.0, "unit": "%"},
      {"measurement": "Preference (%) test composition", "setting": "[2]; Exp. No. 2, 10.0 ppm", "value": 88.0, "unit": "%"},
      {"measurement": "Status (vs. control)", "setting": "[2]; Exp. No. 2, 10.0 ppm", "value": "Win"},
      {"measurement": "Intake Ratio", "setting": "[2]; Exp. No. 3, 20.0 ppm", "value": 0.8151},
      {"measurement": "Preference (%) control composition", "setting": "[2]; Exp. No. 3, 20.0 ppm", "value": 12.0, "unit": "%"},
      {"measurement": "Preference (%) test composition", "setting": "[2]; Exp. No. 3, 20.0 ppm", "value": 88.0, "unit": "%"},
      {"measurement": "Status (vs. control)", "setting": "[2]; Exp. No. 3, 20.0 ppm", "value": "Win"},
      {"measurement": "Intake Ratio", "setting": "[2]; Exp. No. 4, 30.0 ppm", "value": 0.7546},
      {"measurement": "Preference (%) control composition", "setting": "[2]; Exp. No. 4, 30.0 ppm", "value": 20.0, "unit": "%"},
      {"measurement": "Preference (%) test composition", "setting": "[2]; Exp. No. 4, 30.0 ppm", "value": 80.0, "unit": "%"},
      {"measurement": "Status (vs. control)", "setting": "[2]; Exp. No. 4, 30.0 ppm", "value": "Win"},
      {"measurement": "Intake Ratio", "setting": "[2]; Exp. No. 5, 40.0 ppm", "value": 0.7626},
      {"measurement": "Preference (%) control composition", "setting": "[2]; Exp. No. 5, 40.0 ppm", "value": 12.0, "unit": "%"},
      {"measurement": "Preference (%) test composition", "setting": "[2]; Exp. No. 5, 40.0 ppm", "value": 88.0, "unit": "%"},
      {"measurement": "Status (vs. control)", "setting": "[2]; Exp. No. 5, 40.0 ppm", "value": "Win"},
      {"measurement": "Intake Ratio", "setting": "[2]; Exp. No. 6, 50.0 ppm", "value": 0.8505},
      {"measurement": "Preference (%) control composition", "setting": "[2]; Exp. No. 6, 50.0 ppm", "value": 8.0, "unit": "%"},
      {"measurement": "Preference (%) test composition", "setting": "[2]; Exp. No. 6, 50.0 ppm", "value": 92.0, "unit": "%"},
      {"measurement": "Status (vs. control)", "setting": "[2]; Exp. No. 6, 50.0 ppm", "value": "Win"},
      {"measurement": "Intake Ratio", "setting": "[2]; [8]", "value": 0.9385},
      {"measurement": "Preference (%) control composition", "setting": "[2]; [8]", "value": 0.0, "unit": "%"},
      {"measurement": "Preference (%) test composition", "setting": "[2]; [8]", "value": 100.0, "unit": "%"},
      {"measurement": "Status (vs. control)", "setting": "[2]; [8]", "value": "Win"},
      {"measurement": "Intake Ratio", "setting": "[2]; [9]", "value": 0.7990},
      {"measurement": "Preference (%) control composition", "setting": "[2]; [9]", "value": 12.0, "unit": "%"},
      {"measurement": "Preference (%) test composition", "setting": "[2]; [9]", "value": 84.0, "unit": "%"},
      {"measurement": "Status (vs. control)", "setting": "[2]; [9]", "value": "Win"},
      {"measurement": "Intake Ratio", "setting": "[2]; [10]", "value": 0.8128},
      {"measurement": "Preference (%) control composition", "setting": "[2]; [10]", "value": 8.0, "unit": "%"},
      {"measurement": "Preference (%) test composition", "setting": "[2]; [10]", "value": 92.0, "unit": "%"},
      {"measurement": "Status (vs. control)", "setting": "[2]; [10]", "value": "Win"},
      {"measurement": "Intake Ratio", "setting": "[2]; [11]", "value": 0.8912},
      {"measurement": "Preference (%) control composition", "setting": "[2]; [11]", "value": 4.0, "unit": "%"},
      {"measurement": "Preference (%) test composition", "setting": "[2]; [11]", "value": 92.0, "unit": "%"},
      {"measurement": "Status (vs. control)", "setting": "[2]; [11]", "value": "Win"},
      {"measurement": "Intake Ratio", "setting": "[2]; [12]", "value": 0.8012},
      {"measurement": "Preference (%) control composition", "setting": "[2]; [12]", "value": 16.0, "unit": "%"},
      {"measurement": "Preference (%) test composition", "setting": "[2]; [12]", "value": 80.0, "unit": "%"},
      {"measurement": "Status (vs. control)", "setting": "[2]; [12]", "value": "Win"},
      {"measurement": "Intake Ratio", "setting": "[2]; [13]", "value": 0.8339},
      {"measurement": "Preference (%) control composition", "setting": "[2]; [13]", "value": 12.5, "unit": "%"},
      {"measurement": "Preference (%) test composition", "setting": "[2]; [13]", "value": 87.5, "unit": "%"},
      {"measurement": "Status (vs. control)", "setting": "[2]; [13]", "value": "Win"}
    ]}
  ]
}
